“Also recorded” adds a separate entry of the source.
Experiments:
[1] = test system: human umbilical vein endothelial cells (HUVEC); test: Apoptosis rate of confluent endothelial cells in static culture, DAPI staining; format: cell-based; conditions: for Effect on the apoptosis rate (in words): substance(s) added to fresh medium
Experimental: HUVEC are cultivated in gelatin-coated culture vessels at 37° C., 5% CO2 with a water vapor-saturated air atmosphere. The culture medium is changed every 2-3 days; at confluence, the cells are passaged with a division rate of from 1:3 to 1:5. HUVEC grow with strict contact inhibition and form monolayer cell lawns with a typical cobblestone morphology. At confluence, the cultures reach cell densities of 4-9×10^4 cells/cm^2. Only HUVEC cultures of passages 1-4 are used for apoptosis investigations.
(§1) The culture supernatant is aspirated off of a Petri dish, and the cell lawn is fixed with 1 ml of formaldehyde solution on ice for 15 minutes, washed twice with 2 ml of PBS, treated with 0.5 ml of DAPI solution for 15 minutes, washed with PBS and evaluated under a fluorescence microscope. The UV filter set and a 20× or 40× objective are used. 500-1 000 cells are selected at random, and the cells with apoptotic nuclei are counted.
The apoptosis index is calculated by the following formula: […]
(§2) After complete confluence is reached, the cells are employed for the test. Firstly, thrombospondin 1 is added in various concentrations (1-600 μg/ml) to fresh medium and compared with the effect of conditioned medium on the spontaneous apoptosis rate of HUVEC. […] The apoptosis rate is determined by staining apoptotic cells with DAPI.
The cells are seeded into the appropriate culture vessels (e.g. 24-well plate/0.5 ml per well) and employed for the test after complete confluence is reached. Investigations into the effect of various peptides and proteins (table 2) on the apoptosis rate of endothelial cells are carried out.
The cells are seeded in the appropriate culture vessels (e.g. 24-well plate/0.5 ml per well) and employed for the test after complete confluence is reached. […] The apoptotic cells and the total cell count are determined and the apoptosis index is calculated (percent of apoptotic cells). The data of 3 independent experiments are indicated in table 1, stating the mean and standard deviation.

perfused HUVEC = test: Apoptosis rate of endothelial cells in dynamic (perfusion) culture, DAPI staining; format: cell-based, human; conditions: for Effect on apoptosis (in words): perfusion culture
Experimental: as §1, §2

HUVEC [2] = test: Induced calcium influx into the cells, intracellular calcium indicator Fluo-3 AM; format: cell-based, human; conditions: static culture, measured at addition of substance
Experimental: Fluo-3 is a calcium indicator which forms a fluorescent complex after binding of Ca^2+. The ester Fluo-3 AM is taken up by the cells through diffusion. The calcium indicator Fluo 3 is produced only after hydrolysis of the ester in the cell. […] The measurement is carried out with normal fluorescein filters. At an excitation wavelength of 488 nm (500 nm), the emission maximum is at 525 nm and increases by a factor of 100 (200) through calcium binding.
Confluent HUVEC cell lawns in 24-well plates are washed three times with serum-free medium, incubated with preheated serum-free medium with Fluo-3 AM under culture conditions for 30 minutes and washed three times, and the plate is measured with a fluorimeter. First the sensitivity of the instrument is adjusted, and then fluorescence values corresponding to the instantaneous calcium level in the cell are recorded every 1-10 seconds. Substances can be added to the cells while the measurement is taking place. […] Assessment of the calcium level is possible with this method.
The influx of calcium into the cells can be employed as early indicator.
The test system can also be carried out with the calcium indicator Fluo-3 AM. […] The cells are employed for the test after complete confluence is reached. […] During the measurement, the substances b, c, e, f, g are added to the cells. […]

HUVEC [3] = test: Apoptosis rate after cone and plate shear pre-cultivation and transfer to static wells, DAPI staining (Examples 11, 12); format: cell-based, human; conditions: for Apoptosis rate (%) with EGTA and with peptides: 0.5 mM EGTA, RGD peptide 250 μg/ml + IAP peptide 400 μg/ml
Experimental: The cone and plate shear apparatus is first cleaned with a soft cloth and 70% ethanol, the cone is sterilized, and the apparatus is then stabilized at 37° C. in a heating cabinet for at least 30 min. The precultivated cells are washed with culture medium and provided with 0.06 ml/cm^2 fresh culture medium, and the culture dish is rapidly fitted into the cone and plate shear apparatus.
The cone is raised using the coarse adjustment, and the culture dish together with lid is carefully inserted into the holder provided therefor. The lid is taken off and the cone is lowered onto the culture dish and adjusted: the tip of a cone is then a minimal distance from the cell lawn and the cone moves round without abrading. The assembled cone and plate shear apparatus is placed in an incubator at 37° C., 5% (v/v) CO2 with a water vapor-saturated atmosphere for dynamic cultivation of the cells.
as §1
The culture dish is removed and divided into 12 independent culture wells (culture area of each well 0.8 cm^2) by putting in a suitable insert. Half of the culture is cultivated in culture medium with EGTA and the second half is cultivated in culture medium without EGTA. […] The apoptosis rate is determined by staining the apoptotic cells with DAPI.

[4] = static, 48 h, substance(s) in fresh medium, TSP 1 μg/ml, RGD 250 μg/ml, CBD 400 μg/ml

In the case of “cyclic Arg-Gly-Asp-(D-Phe)-Val peptide [active RGD]”, the “Effect on the apoptosis rate (in words)” value ([1]; static culture) is reported as “no effect on the apoptosis rate” and the “Apoptosis rate (%)” value [1, 4] is reported as 1.2 ± 0.5%.

Thrombospondin 1 [TSP-1] was tested, and the “Apoptosis rate (%) after 24 h” value (perfused HUVEC; dynamic culturing conditions, TSP-1 1 μg/ml) was under 0.1%, the “Effect on apoptosis (in words)” value (perfused HUVEC) was “no effect on apoptosis” and the “Effect on apoptosis (in words)” value (perfused HUVEC; listed as Thrombospondin) was “no effect on perfused HUVEC”. For the same molecule, the “Effect on intracellular calcium level (in words)” value (HUVEC [2]) was “increase in the intracellular calcium level; also recorded: calcium influx into the cell”, the “Apoptosis rate (%)” value ([1]; static culture, 24 h, substance alone (in fresh medium; TSP-1 1 μg/ml, antiserum 1:20, mAb 1:30)) was 3.0 ± 0.4% and the “Effect on the apoptosis rate (in words)” value ([1]; static culture) was “increase in spontaneous apoptosis”. For the same molecule, the “Effect on the apoptosis rate (in words)” value ([1]; static culture, listed as thrombospondin) was “significant increase in the apoptosis rate”, the “Apoptosis rate (%) after 24 h” value ([1]; static culturing conditions, TSP-1 1 μg/ml) was 3.0 ± 0.4% and the “Apoptosis rate (%)” value [1, 4] was 6.9 ± 1.2%. For the same molecule, the “Apoptosis rate [%] (with SEM)” value ([1]; static, 48 hours, fresh medium + TSP-1 1 μg/ml alone) was 7.3 ± 0.6%.

For O=C(O)CN(CCOCCOCCN(CC(=O)O)CC(=O)O)CC(=O)O [EGTA], the “Apoptosis rate (%) with EGTA [2.5 mM]” value (HUVEC [3]; 0 hours) was 0.40 ± 0.22%, the “Apoptosis rate (%) with EGTA and with peptides” value (HUVEC [3]; 0 hours) was 0.45 ± 0.24% and the “Apoptosis rate (%) with EGTA [2.5 mM]” value (HUVEC [3]; 2 hours) was 0.42 ± 0.22%. For the same molecule, the “Apoptosis rate (%) with EGTA and with peptides” value (HUVEC [3]; 2 hours) was 1.00 ± 0.29%, the “Apoptosis rate (%) with EGTA [2.5 mM]” value (HUVEC [3]; 3 hours) was 0.96 ± 0.27% and the “Apoptosis rate (%) with EGTA and with peptides” value (HUVEC [3]; 3 hours) was 0.65 ± 0.24%. The “Apoptosis rate (%) with EGTA [2.5 mM]” value (HUVEC [3]; 4 hours) was 1.56 ± 0.23%, the “Apoptosis rate (%) with EGTA and with peptides” value (HUVEC [3]; 4 hours) was 1.25 ± 0.33% and the “Apoptosis rate (%) with EGTA [2.5 mM]” value (HUVEC [3]; 5 hours) was 2.26 ± 0.35%. The “Effect on the apoptosis rate (in words)” value (HUVEC [3]; EGTA in culture medium with the active peptides) was “significant reduction in the apoptosis rate” and the “Effect on the apoptosis rate (in words)” value (HUVEC [3]; culture medium with 2.5 mmol/l EGTA, static after shear apparatus) was “significant reduction in the apoptosis rate”.

From patent US8252283B2, “Method for treating vascular disorders” (Cytotools GmbH, priority 1999, dated 2012)
